According to paper PMC5384220 (Nature Communications, 2017):
Entries after “also recorded” stand apart in the source; their conditions may differ.

Columns and labels:
KDM4A = molecular target: T1, KDM4A (Homo sapiens, UniProt O75164); experiment: AlphaScreen demethylase activity assay, KDM4A; type: biochemical; details: ratio of IC50 values
T1 construct: KDM4A 1-359 E.coli; Hexa-His (N); made in house; host or cells: E. coli
T1 sequence (O75164 1-359): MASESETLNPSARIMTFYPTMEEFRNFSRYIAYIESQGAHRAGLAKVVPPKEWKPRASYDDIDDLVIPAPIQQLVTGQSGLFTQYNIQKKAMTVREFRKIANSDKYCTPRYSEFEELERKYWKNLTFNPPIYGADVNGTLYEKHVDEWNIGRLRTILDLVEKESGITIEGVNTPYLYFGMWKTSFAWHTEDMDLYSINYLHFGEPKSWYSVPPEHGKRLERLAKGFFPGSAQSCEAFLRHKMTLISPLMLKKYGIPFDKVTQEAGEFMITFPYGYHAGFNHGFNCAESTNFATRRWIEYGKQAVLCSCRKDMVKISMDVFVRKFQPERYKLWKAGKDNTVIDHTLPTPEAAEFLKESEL
Procedure: IC50 values for KDM2–6 were measured using an AlphaScreen assay as described. The appropriate KDM (5 μl) was pre-incubated with an inhibitor (0.1 μl in DMSO) or DMSO for 15 min before the addition of 5 μl mixture of biotinylated peptide substrates, 2OG, ferrous ammonium sulfate (1–10 μM final) and ascorbate (100 μM final) to initiate the demethylation reaction. The reaction was quenched with 5 μl of 30 mM EDTA at predetermined reaction times for each enzyme (initial rate). Demethylated product was detected by addition of 5 μl of AlphaScreen donor and acceptor beads (AlphaScreen General IgG Detection Kit, 0.02 mg ml^−1 final each) pre-incubated with antibody. The plates were read after 1 h incubation in a BMG Labtech Pherastar FS plate reader. Data were normalized to a no enzyme control and IC50 values were calculated using nonlinear regression curve fits using GraphPad Prism. Assay buffer (50 mM HEPES pH 7.5, BSA (0.1% w/v) and Tween-20 (0.01% v/v)) was used throughout, except for dilution of stock ferrous ammonium sulfate solutions where water was used. The enzyme, substrate and antibody concentrations used are described in Supplementary Table 3. A fluorescence-based LSD1 inhibitor screening assay kit (Cayman, 700120) was used for KDM1/LSD1 assay. Assays for prolyl hydroxylase domain 2 and factor inhibiting HIF using matrix-assisted laser desorption/ionization–time of flight MS were performed as previously described. Prism 5.0 (GraphPad) was used to generate and to fit dose–response curves. IC50 values were determined by plotting percentage inhibition versus compound concentration relative to positive (vehicle) and negative (no enzyme) controls, using normalized dose–response (variable slope) fit. The reported values are the mean of multiple experiments (n≥3). The formaldehyde dehydrogenase coupled KDM assay was used to determine the mode of inhibition, using 0.5 μM His-KDM4A1–359. Prism 5.0 (GraphPad) was used to fit in mix-mode inhibition, to determine the kinetic parameters. Binding constants for CPs and H3(1–15)K9me3 were measured using biolayer interferometry (OctetRed 384, ForteBio) in buffer (50 mM HEPES (pH 7.5), 150 mM NaCl, 10 μM ammonium iron(II) sulphate). His-KDM4A1–359-Bio (70 nM) was immobilized onto super streptavidin biosensor and subjected to different peptide concentrations in buffer. Data analysis was performed using ForteBio Data Aalysis (v6.4).
Construct Expression [E] / nM [2OG] / µM [Fe(II)] / µM Peptide / nM Peptide sequence Antibody Source […]
Supplementary Table 3. AlphaScreen assay parameters for 2OG oxygenases used for this study. The table was dapted from 10. Assays were performed at 2OG concentration near the 2OG Km values determined experimentally.11 All enzymes were expressed and purified as described.10-12

His-KDM4A1-359-Bio = molecular target: T2, His-KDM4A1-359-Bio (Homo sapiens, UniProt O75164); experiment: Biolayer interferometry binding to KDM4A
T2 construct: KDM4A protein (residues 1-359) was cloned into the pNIC-Bio3 plasmid, which incorporates a C-terminal AviTag; made in house; host or cells: E. coli BL21(DE3)Rosetta co-transfected with pCDF-BirA
T2 sequence (O75164 1-359): T1 sequence (O75164 1-359)
Procedure: (§1) The formaldehyde dehydrogenase coupled KDM assay was used to determine the mode of inhibition[34], using 0.5 μM His-KDM4A1–359. Prism 5.0 (GraphPad) was used to fit in mix-mode inhibition, to determine the kinetic parameters. Binding constants for CPs and H3(1–15)K9me3 were measured using biolayer interferometry (OctetRed 384, ForteBio) in buffer (50 mM HEPES (pH 7.5), 150 mM NaCl, 10 μM ammonium iron(II) sulphate). His-KDM4A1–359-Bio (70 nM) was immobilized onto super streptavidin biosensor and subjected to different peptide concentrations in buffer. Data analysis was performed using ForteBio Data Aalysis (v6.4).
(§2) KDM4A1-359 was immobilized and analysed for binding to peptides at different concentrations.
(§3) The concentration of KDM4A in the assay mixture was 0.5 µM.

His-KDM4A1-359 = molecular target: T3, His-KDM4A1-359 (Homo sapiens, UniProt O75164); experiment: Formaldehyde dehydrogenase coupled KDM assay (mode of inhibition); type: biochemical
T3 construct: using 0.5 μM His-KDM4A1–359; made in house
T3 sequence (O75164 1-359): T1 sequence (O75164 1-359)
Procedure: as §1, §2, §3

FLAG-KDM4E = molecular target: T4, FLAG-KDM4E (Homo sapiens, UniProt B2RXH2); experiment: CETSA, FLAG-KDM4E in U2OS cells; type: cell-based; details: 0.5 µM
T4 construct: expressed in transfected cells; host or cells: U2OS
T4 sequence (B2RXH2 1-506): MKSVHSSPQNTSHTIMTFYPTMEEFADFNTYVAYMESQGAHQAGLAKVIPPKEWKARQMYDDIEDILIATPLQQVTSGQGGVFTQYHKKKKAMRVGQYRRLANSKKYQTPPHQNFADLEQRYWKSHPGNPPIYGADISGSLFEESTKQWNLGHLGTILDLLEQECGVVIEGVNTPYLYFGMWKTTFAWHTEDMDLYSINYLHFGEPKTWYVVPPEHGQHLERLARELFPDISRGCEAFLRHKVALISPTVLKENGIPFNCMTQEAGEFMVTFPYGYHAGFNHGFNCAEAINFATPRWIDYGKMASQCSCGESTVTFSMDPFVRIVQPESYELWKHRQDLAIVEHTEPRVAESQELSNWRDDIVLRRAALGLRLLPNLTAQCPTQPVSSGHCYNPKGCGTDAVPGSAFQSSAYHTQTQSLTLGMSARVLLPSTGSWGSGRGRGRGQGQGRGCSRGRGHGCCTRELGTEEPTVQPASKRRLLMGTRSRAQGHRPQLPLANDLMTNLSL
Procedure: For CETSA melting curve experiments, 80% confluent U2OS cells in a 75 cm^2 flask were transfected with a plasmid encoding full-length Flag-tagged KDM4A1–1,064 (ref. [15]) or KDM4E1–506 (ref. [20]) using Lipofectamine 2000 (Thermo Scientific) and incubated for 4 h. The cells were washed with PBS buffer and media replaced with fresh DMEM with 10% FBS, supplemented with cyclic peptides in DMSO (0.1% DMSO final). Cell dosing was carried out for 20 h at 37 °C. Control cells were dosed only with DMSO. The cells were trypsinized and washed thrice with PBS, by centrifugation (300 g, 3 min, 4 °C). Cells were re-suspended in PBS supplemented with Complete Protease inhibitor cocktail (Sigma) and divided into 8–10 aliquots (100 μl) containing equal cell numbers in PCR tubes. For ITDRF CETSA experiments, approximately 6 × 10^6 cells were seeded evenly into nine 25 cm^2 flask and adhered before transfection. After 4 h of incubation, the cells were washed with PBS buffer and the media replaced with fresh DMEM with 10% FBS supplemented with cyclic peptides at a final concentration between 0 and 4,000 nM (0.1% DMSO final). Cells were trypsinized and washed thrice with PBS using centrifugation (300 g, 3 min, 4 °C). Cells were re-suspended in PBS supplemented with protease inhibitor cocktail (Sigma), aliquots (100 μl) containing equal cell numbers in PCR tubes were prepared. […] For ITDRF, tubes were incubated at approximately the Tm of the proteins of interest as determined by CETSA melting curve experiments, for example, 55 °C (Tm for actin) for 3 min, followed by room temperature for 3 min. […]
The samples (supernatant) were run on SDS–PAGE (NuPage Novex Bis-Tris 4–12% polyacrylamide gels with NuPAGE MES SDS running buffer (Thermo Scientific)) and transferred onto nitrocellulose membranes using either the iBlot blotting system. FLAG-KDM4A levels were determined by immunoblotting using a monoclonal mouse anti-FLAG primary antibody (F1804, Sigma), at a dilution of 1: 1,000 in PBS-T buffer containing Seablock Reagent Salmon Plasma (2% v/v, Calbiochem). […]

[1] = system: H3K9me3/H3K36me3 in HeLa cells; experiment: Immunofluorescence of global histone methylation, 72 h dosing; type: cell-based; details: 72 h treatment
From the text: Supplementary Figure 12. Immunofluorescence analysis of global histone methylation levels after 72hr dosing of cyclic peptides in HeLa cells. (a)-(c) Immunofluorescence analysis of HeLa cells dosed with cyclic peptides for 72 hrs. Maximum intensity projected images of 3D confocal z-stacks showing nuclei stained with […]
DMSO and CP2 treated cells. Bar represents 50µm. Global H3K9me3 (d) and associated nuclei count for the […]
staining, (h) global H3K4me3 and (i) global H3K27me3 staining. An increase in fluorescence intensity, […]
over certain concentration ranges. Average +/- s.e.m (n > 100 cells) are shown except at concentrations of […]
A generic 2OG oxygenase inhibitor 5-carboxy-8-
Immunofluorescence (IF) assay […]
with 0.5% FBS and 1% Pen-Strep. […]
grade plate (Becton Dickinson) and left overnight to adhere. Cells were dosed with cyclic […]
After 30min blocking (3% FBS in […]
three times after each incubation. […]
Image acquisition and analysis […]
image immunostained cells in a 96-well plate configuration. For each well, the system […]
The average intensity for each […]
analysed using GraphPad Prism 5. […]

DYVYNTRSGWRWYTC [CP2] was tested. Which “Intra-subfamily selectivity KDM4A-C over KDM4D-E” value (KDM4A) did it give?
Its value is > 100 fold.

And the “Selectivity by IC50 for KDM4 over other JmjC-demethylase families, PHD2, FIH and KDM1A” value (KDM4A)?
Its value is > 160 fold.

What about the “KDM4A Binding kdiss” value (His-KDM4A1-359-Bio) of the same sequence?
The value was 0.00407 s⁻¹.

And the “KDM4A Binding kon” value (His-KDM4A1-359-Bio)?
The value was 137000 M⁻¹ s⁻¹.

And the “α (mixed-mode inhibition parameter)” value (His-KDM4A1-359; FDH assay, 0.5 µM KDM4A)?
Its value is 4.73.

What about the “Mode of inhibition with respect to H3K9me3” value (His-KDM4A1-359; kinetic analyses) of the same sequence?
The value was “competitive inhibitor”.

And the “CETSA stabilization / Tm shift of FLAG-KDM4E” value (FLAG-KDM4E)?
The value was “No significant changes in the Tm shift; also recorded: not stabilized”.

What about the “Change in global H3K9me3/H3K36me3 levels” value [1] of the same sequence?
The value was “did not have any apparent effect; also recorded: no discernible changes”.
